{
  "source": "patent US20100233131A1",
  "about": "(PUSAN NATIONAL UNIVERSITY INDUSTRY-UNIVERSITY COOP, priority 2008, published 2010)",
  "type_in_all_cases": "cell-based, human",
  "key": {"ATSCs [1]": {"tested_on": "ATSCs", "assay": "Western blot of proliferation-related signaling proteins", "conditions": "time-dependent"}, "ATSCs [2]": {"tested_on": "ATSCs", "assay": "ROS generation (DCF fluorescence)"}, "ATSCs [3]": {"tested_on": "ATSCs", "assay": "Neural differentiation in vitro", "description": "In an attempt to estimate differentiation potential of selenium-treated ATSCs into neural cells in vitro, low levels of Nestin protein expression were detected in the selenium-treated ATSCs after the induction of differentiation (FIG. 19). After neural differentiation, the selenium-treated ATSCs expressed higher levels of Tuj, GFAP, MAP2ab and NF160 than the control ATSCs (FIG. 19). […] It means that there is a difference in differential potential between the control ATSCs and the selenium-treated ATSCs."}, "ATSCs [4]": {"tested_on": "ATSCs", "assay": "Cell scraped wound model assay", "experimental": "Cells were seeded into 60 mm culture dishes, and a straight line was lightly carved across the center, outer and bottom surface of each dish with a scalpel. The ATSCs were incubated overnight in a serum-free medium, scraped from one side of the marked line, and washed three times with a medium to remove loose or dead cells. […] The control dish was also scratched in the same manner as described above, and incubated in a selenium-free medium. Cells migrated across the marked reference line were photographed under a phase contrast microscope."}, "ATSCs [5]": {"tested_on": "ATSCs", "assay": "Osteogenic and adipogenic differentiation in vitro", "experimental": "To estimate the differentiation potential of selenium-treated ATSCs, osteogenic and adipogenic differentiation potential was evaluated.\nIn the present embodiment, it was confirmed that the selenium-treated ATSCs accumulated significant amounts of calcium and lipid droplets after only one week of osteogenetic and adipogenetic induction in vitro (FIG. 17). Differences in formation of bone nodules and lipid droplets between the control and selenium-treated ATSCs were estimated by calculating the number of stained bone nodules and lipid droplets in 25 randomly selected fields (regions)."}, "[6]": {"tested_on": "Rex1, Nanog and Oct4 promoter regions", "assay": "Bisulfite sequencing of CpG methylation on stemness gene promoter regions", "experimental": "Also, a bisullipide sequencing analysis was performed in order to establish 5′-3′ CpG methylation profiles across a proximal promoter, a proximal enhancer and an early transcription start site (TSS) of each gene.\nGenomic DNA of ATSCs was purified by phenol/chloroform/isoamylalcohol extraction, and chloroform extraction once, and then was precipitated with ethanol. The DNA was dissolved in distilled water. Bisullipide conversion was performed using EZ DNA Methylation-Gold Kit (Zymo Research, USA), as described by a manufacturer. That is, unmethylated cytosines on the DNA were converted into uracils via the heat-denaturation of DNA with specifically designed CT conversion reagent. The DNA was then desulphonated and subsequently cleaned and eluted. The bisulfite-modified DNA was then immediately used for PCR or stored at −20° C. or below. The converted DNA was amplified via PCR using primers designed with MethPrimer (http://www.urogene.org/methprimer). The PRC was conducted in a MyGenie 96 Gradient Thermal Block (Bioneer, Daejeon, South Korea) according to the following protocol, including 95° C. for 15 minutes, 40 cycles of 95° C. for 20 seconds, 43 to 58° C. for 40 seconds, and 72° C. for 30 seconds, elongation at 72° C. for 10 minutes and soaking at 4° C. After electrophoresis on 1.5% agarose gel, the remaining PCR products were cloned into bacteria (DH5α) by the pGEM T-Easy Vector System I (Promega, Madison, Wis., USA). The DNA extracted from bacterial clones were analyzed via sequencing with M13 reverse primers using the ABI 3730XL capillary DNA sequencer (Applied Biosystems, Foster City, Calif., USA), and represented as rows of circles, each circle denoting the methylation status of CpG."}, "ATSCs [7]": {"tested_on": "ATSCs", "assay": "Molecular marker expression by real time RT-PCR and Western blot", "description": "The expression of molecular markers in both the control ATSCs and the selenium-treated cells was verified via real time RT-PCR and Western blot analysis."}, "ATSCs [8]": {"tested_on": "ATSCs", "assay": "Telomerase activity of selenium-treated ATSCs", "conditions": "5 ng/ml selenium for 3 days", "description": "An increase in telomerase activity is a characteristic of a stem cell, and a decrease in telomerase activity indicates differentiation of the cells."}, "ATSCs [9]": {"tested_on": "ATSCs", "assay": "Differentiation into insulin-producing cells", "conditions": "after beta-cell-like differentiation, vs differentiated control ATSCs", "experimental": "Moreover, for differentiation of cells similar to beta cells, cells were cultured in “N2 media-NA” containing DMEM/F12 (Gibco-Invitrogen) supplemented with 10 mM nicotinamide, ITS (1:50), B27 (1:50; Invitrogen) and 15% FBS. After 24-hour culture, the medium was changed with a high glucose (3500 mg/L)-containing differentiation medium for 2 weeks. After the induction of differentiation, double immunocytochemistry was conducted using insulin (1:800; Sigma) and c-peptide (1:100; Milipore) antibodies."}, "ATSCs [10]": {"tested_on": "ATSCs", "assay": "Prolonged culture / proliferation lifespan", "description": "During prolonged culture periods, the population of control ATSCs underwent a progressive reduction in proliferation potential. The cells finally underwent senescence after 21 to 23 passages (90 to 100 days in culture). At the end of the proliferation lifespan, the cells were flattered and larger in morphology in a monolayer similar to that described for senescent fibroblasts. […] The rate of proliferation of selenium-treated ATSCs resembled that of the control ATSCs."}, "ATSCs [11]": {"tested_on": "ATSCs", "assay": "Colony forming unit (CFU) assay", "conditions": "5 ng/ml selenium 3 days, colonies counted after 15 days, vs control ATSCs", "experimental": "Also, the proliferation efficiency of colony forming units (CFU) in the selenium-treated cells was evaluated. […] First, the ATSCs were seeded in 10 cm dishes at a density of 5×10^5 and cultured in a 2% FBS-containing α-MEM medium for 8 hours at 37° C. in a CO2 incubator. […] After 15 days, the cells were fixed with 4% paraformaldehyde (PFA) for 30 minutes at room temperature and stained with 0.1% toluidine blue dissolved in 1% PFA. The proliferation efficiency of the CFU was evaluated via visual colony counts."}, "ATSCs [12]": {"tested_on": "ATSCs", "assay": "Oligonucleotide microarray analysis of gene expression", "conditions": "vs control ATSCs", "experimental": "To confirm the pattern of gene expression, oligonucleotide microarray analysis was performed."}},
  "data": [
    {"smiles": "O=[Se]([O-])[O-].[Na+].[Na+]", "note": "[selenium, sodium selenite]", "values": [
      {"measurement": "activation of PI3K and downstream mediators (p-Rac, p-c-Raf, p-MEK, p-ERK, p-Stat3, p-Akt)", "setting": "ATSCs [1]; 0, 3, 6 and 12 hours", "result": "significant activation"},
      {"measurement": "concentration of apoptosis-related protein p-SAPK/JNK", "setting": "ATSCs [1]", "result": "reduced"},
      {"measurement": "increased fluorescence intensity of DCF (ROS generation)", "setting": "ATSCs [2]", "result": "compensated"},
      {"measurement": "acetyl-histones 3 and 4 (Western blot)", "setting": "ATSCs [3]; after neural differentiation", "result": "overexpressed"},
      {"measurement": "expression of Tuj, GFAP, MAP2ab and NF160", "setting": "ATSCs [3]; after neural differentiation, vs control ATSCs", "result": "higher levels"},
      {"measurement": "neural differentiation (MAP2ab/total cells)", "setting": "ATSCs [3]; control ATSCs 2.4%", "result": "9.0 % of total cells"},
      {"measurement": "migration of ATSCs across the reference line", "setting": "ATSCs [4]; 5 ng/ml selenium, 24 hours, vs control ATSCs", "result": "three times higher"},
      {"measurement": "expression of migration-associated factors MMP1, MMP3, SDF1, VEGF and CXCR4", "setting": "ATSCs [4]; after selenium treatment", "result": "increases in expression"},
      {"measurement": "lipid droplets vs control ATSCs", "setting": "ATSCs [5]; adipogenic induction, eluted dye quantitative assay", "result": "six-fold more"},
      {"measurement": "level of osteonectin, RXR and osteopontin mRNA", "setting": "ATSCs [5]; during osteogenesis", "result": "significant increases"},
      {"measurement": "levels of AP and PPAR-γ mRNAs", "setting": "ATSCs [5]; in adipogenesis", "result": "significant increases"},
      {"measurement": "bone nodules vs control ATSCs", "setting": "ATSCs [5]; osteogenic induction, eluted dye quantitative assay", "result": "Five-fold more"},
      {"measurement": "Nanog promoter methylation", "setting": "[6]; third region (-86 to +66) to the TSS", "result": "effectively demethylated"},
      {"measurement": "Oct4 promoter CpG methylation", "setting": "[6]; third region, control ATSCs 65.7%", "result": 30.3, "unit": "%"},
      {"measurement": "Rex1 region CpG methylation", "setting": "[6]; third region, control ATSCs 72.2%", "result": 42.2, "unit": "%"},
      {"measurement": "acetylation of Histones 3 and 4", "setting": "ATSCs [7]", "result": "attenuated"},
      {"measurement": "expression of GFAP, Tuj, p53 and p21", "setting": "ATSCs [7]", "result": "downregulation"},
      {"measurement": "expression of Nestin and c-Myc", "setting": "ATSCs [7]", "result": "induced expression"},
      {"measurement": "Rex1 expression", "setting": "ATSCs [7]; vs control ATSCs", "result": "significantly increased"},
      {"measurement": "expression of stemness and functional genes (Rex1, Nanog, Oct4, Sox2, Runx3, CDK1, CDK2, Nestin, VEGF, FGFR1)", "setting": "ATSCs [7]; vs control ATSCs", "result": "overexpression"},
      {"measurement": "increase in telomerase activity", "setting": "ATSCs [8]", "result": 2, "unit": "fold"},
      {"measurement": "insulin secretion with C-peptide", "setting": "ATSCs [9]", "result": "secreted a significant amount of insulin"},
      {"measurement": "passages of continuous growth", "setting": "ATSCs [10]", "result": "> 21", "unit": "passages"},
      {"measurement": "duration of continuous growth", "setting": "ATSCs [10]; control ATSCs senescent after 21 to 23 passages", "result": "more than 3 months"},
      {"measurement": "cell proliferation increase by CFU levels", "setting": "ATSCs [11]", "result": "at least 1.8 times"},
      {"measurement": "upregulation of cell proliferation-associated genes", "setting": "ATSCs [12]", "result": 42, "unit": "%"}
    ]}
  ]
}
